One may read the pKi as the negative decadic logarithm of the Ki, by convention in mol/L.

One assay deals with T1, hSARM1 (Homo sapiens, UniProt Q6SZW1).
T1 construct: hSARM1w.t; (26ERL . . . GPT724) that was not mutated in E642, was also expressed and isolated; 6xHis (N); TEV cleavage site (N); made in house; host or cells: HEK293F suspension cells
T1 sequence (Q6SZW1 with tags, fused parts or gaps): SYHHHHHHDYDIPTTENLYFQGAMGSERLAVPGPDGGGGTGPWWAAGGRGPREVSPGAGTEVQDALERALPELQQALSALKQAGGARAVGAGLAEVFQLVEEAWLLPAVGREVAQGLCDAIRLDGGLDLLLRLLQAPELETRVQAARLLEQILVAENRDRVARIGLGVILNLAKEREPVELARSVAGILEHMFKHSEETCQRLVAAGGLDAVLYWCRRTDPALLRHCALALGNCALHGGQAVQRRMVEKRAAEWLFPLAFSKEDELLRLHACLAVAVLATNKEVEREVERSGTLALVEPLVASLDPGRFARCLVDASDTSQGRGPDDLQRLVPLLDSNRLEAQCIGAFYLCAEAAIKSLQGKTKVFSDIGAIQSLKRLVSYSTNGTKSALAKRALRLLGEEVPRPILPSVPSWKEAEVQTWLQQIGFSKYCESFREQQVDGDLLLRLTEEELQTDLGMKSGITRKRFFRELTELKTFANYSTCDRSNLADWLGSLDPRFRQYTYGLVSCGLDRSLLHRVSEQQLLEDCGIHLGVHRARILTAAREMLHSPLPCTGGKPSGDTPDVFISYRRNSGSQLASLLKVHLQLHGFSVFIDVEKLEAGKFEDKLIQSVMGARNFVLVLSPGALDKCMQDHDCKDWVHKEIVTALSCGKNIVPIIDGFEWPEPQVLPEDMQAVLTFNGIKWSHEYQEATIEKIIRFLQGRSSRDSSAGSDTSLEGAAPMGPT
The assay is described as follows: Kinetic parameters of hSARM1, substrate inhibition fit. It is filed as biochemical. The method, then:
(§1) FIG. 14C. […] The kinetic parameters were determined from plots of reaction velocity of NAD+ consumption versus substrate (NAD+) concentration and then fitted to the Michaelis-Menten equation (Km and Vmax) or substrate inhibition equation (Ki) using non-linear curve fit in GraphPad Prism. Kcat was calculated by dividing the Vmax with protein molar concentration.
(§2) For Vmax and Km determination, the NADase activity assay was performed with several different NAD+ substrate concentrations and sampled in constant time points. For each NAD+ concentration, linear increase zone was taken for slope (V0) calculation. All data were than fitted to the Michaelis-Menten equation using non-linear curve fit in GraphPad Prism software. Kcat was calculated by dividing the Vmax with protein molar concentration.

The target in the next assay is T2, zfSARM1 (Danio rerio, UniProt F1QWA8).
T2 sequence (F1QWA8 1-713): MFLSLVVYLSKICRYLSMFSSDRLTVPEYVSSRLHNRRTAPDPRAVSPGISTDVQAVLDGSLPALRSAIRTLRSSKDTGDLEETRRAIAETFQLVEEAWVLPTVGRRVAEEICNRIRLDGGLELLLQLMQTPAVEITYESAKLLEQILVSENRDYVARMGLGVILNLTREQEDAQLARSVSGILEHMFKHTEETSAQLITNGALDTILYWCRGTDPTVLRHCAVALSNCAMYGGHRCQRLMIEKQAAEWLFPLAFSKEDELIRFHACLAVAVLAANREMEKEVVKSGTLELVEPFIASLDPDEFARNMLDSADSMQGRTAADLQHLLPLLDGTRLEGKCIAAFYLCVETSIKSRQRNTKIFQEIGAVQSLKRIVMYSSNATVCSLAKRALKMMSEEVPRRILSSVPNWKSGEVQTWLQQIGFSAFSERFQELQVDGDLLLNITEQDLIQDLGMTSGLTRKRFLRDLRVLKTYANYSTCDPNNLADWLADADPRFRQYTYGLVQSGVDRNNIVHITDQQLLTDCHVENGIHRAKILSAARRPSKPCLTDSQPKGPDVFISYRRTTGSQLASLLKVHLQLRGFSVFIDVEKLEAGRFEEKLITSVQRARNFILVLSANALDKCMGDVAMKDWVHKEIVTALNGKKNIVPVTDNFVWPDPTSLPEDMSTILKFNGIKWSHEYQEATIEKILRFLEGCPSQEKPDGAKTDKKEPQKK
The assay is described as follows: Kinetic parameters of zfSARM1, substrate inhibition fit. The format is biochemical, Zebrafish. On the procedure: as §1, §2

SMILES strings stand for the structures. pKi: −log10 of the molar value. Where two headings read alike, the source gives them in different places.

As for `NC(=O)c1ccc[n+]([C@@H]2O[C@H](COP(=O)([O-])OP(=O)(O)OC[C@H]3O[C@@H](n4cnc5c(N)ncnc54)[C@H](O)[C@@H]3O)[C@@H](O)[C@H]2O)c1` [NAD+, Nicotinamide adenine dinucleotide], the pKi at hSARM1 (apparent inhibition by substrate, read-out: Ki for NAD+, hSARM1) is 3.14; at hSARM1 (substrate inhibition equation, read-out: Ki, inhibition by the substrate NAD+, hSARM1), 3.15; at zfSARM1 (apparent inhibition by substrate, read-out: Ki for NAD+, zfSARM1), 2.87; on zfSARM1 (substrate inhibition equation, read-out: Ki, inhibition by the substrate NAD+, zfSARM1), 2.89.

Source of the values: patent US20220241416A1, “METHODS FOR THE IDENTIFICATION OF SARM1 NADASE ACTIVITY INHIBITORS AND USES THEREOF” (Bar Ilan University, priority 2021, published 2022).
